{"source": "patent US11229714B2", "about": "“Electrochemical reduction or prevention of infections” (WASHINGTON STATE UNIVERSITY, priority 2015, dated 2022)", "key": {"[1]": {"test_system": "Acinetobacter baumannii biofilms", "test": "In vitro A. baumannii biofilm viable cell count (CFU, drop-plate)", "format": "cell-based", "description": "Acinetobacter baumannii biofilms were used to test efficacy of the e-scaffold. An overnight culture of Acinetobacter baumannii (ATCC #BAA-1605) was grown in full-strength Luria Broth (LB) medium (Sigma-Aldrich, catalog #L3522) and was re-suspended in 5% LB medium (OD600≈0.5). […] After 2 hours of initial attachment, the bacterial suspension was removed and the biofilms were washed twice to remove planktonic cells and then refreshed with 5% LB medium. Biofilms were allowed to develop for 24 hours. Before the e-scaffolds were applied, the bulk liquid was refreshed.\nE-scaffolds were sterilized by autoclaving (121° C., 15 min) and were saturated with sterilized liquid medium before being applied to existing Acinetobacter baumannii biofilms. The scaffolds were then polarized at −600 mVAg/AgCl for 24 hours, after which biofilms were processed for the quantification of viable cells by scraping the e-scaffold and biofilms from the glass surfaces of the petri dish into 5 ml of LB medium (1 g/L). The suspensions were centrifuged, and the resulting cell pellet was re-suspended in 1 ml of LB medium (1 g/L), and serial dilutions were prepared. Colony-forming units (“CFU”) were counted using a drop-plate count method. […]\nTo test whether H2O2 can remove biofilms in vitro and from infected porcine explants, exogenous H2O2 (VWR, Catalog #RC3819-16, adjusted to a concentration similar to that produced by the e-scaffold) was added to Acinetobacter baumannii biofilms. […] First, the biofilms were exposed to the total calculated amount of H2O2 in a single administration. […]\nCatalase (Sigma-Aldrich, catalog #C1345) was added to an Acinetobacter baumannii biofilm and measured protection against H2O2 produced by the e-scaffold. Prior to addition, the H2O2 decomposition rate per unit of catalase was determined from H2O2 microelectrode measurements. The total amount of catalase required per min for complete decomposition of H2O2 was calculated based on the rate of H2O2 generation by the e-scaffold. To ensure complete H2O2 decomposition, catalase was added in excess of the calculated value (5×=0.05 mg/ml). […]"}, "[2]": {"test_system": "P. aeruginosa PAO1 biofilms", "test": "Tobramycin susceptibility of P. aeruginosa PAO1 biofilms with or without e-scaffold (CFU)", "format": "cell-based, Pseudomonas aeruginosa", "conditions": "biofilms regrown from persister cells, 10 μg/ml tobramycin, no e-scaffold", "method": "For the following experiments, 20 g/L (1×) Luria broth (LB) medium (Sigma-Aldrich, catalog #L3522) was used to grow P. aeruginosa PAO1 cultures overnight, and 1 g/L (0.05×) LB was used as the growth medium for biofilms. Tobramycin (Sigma Aldrich, catalog #T4014) and ciprofloxacin (Sigma Aldrich, catalog #17850) solutions were diluted in 1 g/L (0.05×) LB for antibiotic susceptibility experiments and persister cell isolation, respectively. Minimum inhibitory concentrations (MICs) were determined for both antibiotics following the Clinical and Laboratory Standards Institute (CLSI) protocol. Other compounds used include 3′-p-hydroxyphenyl fluorescein dye (Invitrogen, catalog #H36004), propidium iodide (Invitrogen, catalog #L-7012), thiourea (AK Scientific, Inc., catalog #S726), and H2O2 (VWR, Catalog #RC3819-16).\nFrozen stocks of P. aeruginosa PAO1 were cultured overnight in LB at 37° C. on a rotating table. For biofilm experiments, overnight culture was adjusted to OD600≈0.5 in LB and used as an inoculum. 2 ml of culture was used to inoculate sterile glass bottom petri dishes and allowed to form biofilms for 24 hours. Such one day-old biofilms were treated with e-scaffolds for 24 hours. Untreated and e-scaffold treated biofilm cells were then washed twice to remove loosely attached cells. Remaining cells were recovered for antibiotic susceptibility testing. […]"}, "[3]": {"test_system": "P. aeruginosa PAO1 biofilms", "conditions": "general statement, no e-scaffold; cited from earlier work"}, "[4]": {"test_system": "P. aeruginosa PAO1 biofilm cells", "test": "Intracellular hydroxyl free radical formation (HPF fluorescence)", "format": "cell-based, Pseudomonas aeruginosa", "conditions": "treated vs untreated biofilm cells", "method": "Intracellular hydroxyl free radical (OH•) formation was detected using 5 μM of a fluorescent reporter dye, 3′-(p-hydroxyphenyl fluorescein) (HPF). […] The samples were centrifuged (10,000×g for 10 min), and then the medium was replaced with a final concentration of 5 μM HPF prepared in 500 μL of 0.1 M PBS. After staining in the dark at room temperature for 15 minutes, samples were centrifuged at 10,000×g for 10 min. Supernatant was removed, and cells were rinsed and re-suspended with PBS. An aliquot (100 μL) was added to each well in a 96-well plate, and fluorescence intensity was quantified using a microplate reader with excitation at 490 and emission at 515 nm. For the OH• formation assays, fluorescence was estimated as ((Fluorescence with dye− Fluorescence without dye)/(Fluorescence without dye))*(100)."}, "[5]": {"test_system": "P. aeruginosa PAO1 biofilm cells", "test": "SEM imaging of biofilm cells", "format": "cell-based, Pseudomonas aeruginosa", "conditions": "24 h treatment", "method": "For SEM imaging, biofilms were grown for 24 hours on UV-sterilized, 0.22 μm type GV membrane filters placed in sterile 6-well plates. Exogenous H2O2 was added continuously at an average 0.008 mmol/h for 24 hours to mimic the e-scaffold generated H2O2 treatment. After treatment for 24 hours, both e-scaffolds and membrane filters with biofilms were aseptically collected from the untreated, e-scaffold treated, and exogenous H2O2 treated wells. The membrane filters and e-scaffolds were fixed overnight with 2.5% glutaraldehyde and 2% paraformaldehyde in 0.1 M phosphate buffer, followed by rinsing with 0.1 M phosphate buffer. The membranes and e-scaffolds were then dehydrated gradually by being washed sequentially with 10%, 30%, 50%, 70%, and 95% alcohol (10 min each) and 100% alcohol (3×10 min each). Samples were then sputter-coated with gold prior to field emission in-lens scanning electron microscopy imaging."}, "[6]": {"test_system": "P. aeruginosa PAO1 planktonic culture", "test": "Dose-dependent killing curve for ciprofloxacin, stationary phase planktonic culture", "format": "cell-based, Pseudomonas aeruginosa", "conditions": "0-200 μg/ml, 200× of MIC", "method": "(§1) To identify and isolate P. aeruginosa PAO1 persister cells, planktonic culture was grown to the stationary phase and the dose-dependent killing curve for ciprofloxacin (0-200 μg/ml) was investigated. […] Assessments were then performed on biofilms regrown from cells recovered after no treatment (“untreated biofilms”), cells recovered after e-scaffold treatment (“e-scaffold treated biofilm”), and “persister cells” that were isolated from biofilms treated with 200 μg/ml ciprofloxacin for 3.5 hours. The treated samples were washed with 0.9% NaCl and suspended in LB to isolate persister cells from ciprofloxacin-treated biofilms for subsequent experiments as described in more detail below."}, "[7]": {"test_system": "P. aeruginosa PAO1 persister cells", "test": "Treatment of persister cells isolated from ciprofloxacin-treated biofilms (CFU)", "format": "cell-based, Pseudomonas aeruginosa", "method": "as §1\nThe total number of viable cells was determined for ciprofloxacin-treated and untreated biofilms using the modified drop-plate cell counting method. Remaining persister cells were then exposed to either 200 μg/ml ciprofloxacin or e-scaffold treatment for 6 hours. Final CFU values were then determined."}}}
{"molecule": "catalase", "values": [{"measurement": "effect on biofilm", "setting": "[1]; catalase itself (0.05 mg/ml)", "result": "no significant effect"}]}
{"molecule": "NC[C@H]1O[C@H](O[C@H]2[C@H](O)[C@@H](O[C@H]3O[C@H](CO)[C@@H](O)[C@H](N)[C@H]3O)[C@H](N)C[C@@H]2N)[C@H](N)C[C@@H]1O", "note": "[tobramycin]", "values": [{"measurement": "reduction in viable cells", "setting": "[2]", "result": "1.2±0.16", "unit": "log"}, {"measurement": "tobramycin typically required for P. aeruginosa PAO1 biofilm treatment", "setting": "[3]", "result": "> 500 × of MIC"}]}
{"molecule": "OO", "note": "[H2O2, hydrogen peroxide]", "values": [{"measurement": "HPF fluorescence (OH• formation)", "setting": "[4]", "result": "increased fluorescence"}, {"measurement": "reduction in Acinetobacter baumannii CFU", "setting": "[1]; 45 mM H2O2 in a single administration, vs control without H2O2", "result": "~3", "unit": "log"}, {"measurement": "reduction in bacterial counts", "setting": "[1]; equivalent concentration of H2O2 delivered continuously over 24 hours", "result": "~2", "unit": "log"}, {"measurement": "cell morphology in SEM images", "setting": "[5]", "result": "membrane-compromised cells"}]}
{"molecule": "O=C(O)c1cn(C2CC2)c2cc(N3CCNCC3)c(F)cc2c1=O", "note": "[ciprofloxacin]", "values": [{"measurement": "ciprofloxacin concentration above which the surviving subpopulation plateaus", "setting": "[6]", "result": "above 50 μg/ml"}, {"measurement": "change of final population of persister cells", "setting": "[7]; additional 6 hours of 200 μg/ml ciprofloxacin treatment", "result": "did not change"}, {"measurement": "share of total biofilm cells belonging to the persister population", "setting": "[7]; biofilms treated with 200 μg/ml ciprofloxacin for 3.5 hours", "result": "about 0.31%"}]}
